The test system of assay [1] is TNFα production in LPS-stimulated Raw264.7 cells. Nature of the assay: TNFα production inhibition test. Type of assay: cell-based. The conditions noted are these: Mus musculus, test compound 1 μmol/L, LPS 1 μg/mL, 16 hours, ELISA, read-out: Inhibition rate of TNFα production. As to the method:
7×10^4 mouse macrophage-derived cell line Raw264.7 cells were suspended in 100 μL of RPMI1640 medium containing 10% fetal bovine serum, plated in a 96-well plate and incubated overnight. The culture supernatant was removed and the test compound diluted in RPMI1640 medium containing 1% fetal bovine serum (final concentration: 1 μmol/L) was added. One hour after the addition, LPS (B4:0111) (Sigma-Aldrich, L2630) was added to a final concentration of 1 μg/mL. 16 hours after the stimulation, the culture supernatant was collected and the amount of TNFα produced in the culture supernatant was determined using ELISA kit (R&D Systems, MTA00B).
The inhibition rate was calculated from the following formula. Inhibition rate (%)=100−(amount of TNFα produced in the presence of test compound/amount of TNFα produced in the absence of test compound)×100
In general terms: ELISA stands for enzyme-linked immunosorbent assay.

Assay [2] has as its system normal human neonatal foreskin epidermal keratinocytes (NHEK-F). Description: Cell proliferation inhibition test. Type of assay: cell-based. As to conditions: Keratinocyte, 72 h, NHEK-F cells, three days incubation, ATPlite or CellTiterGlo, read-out: IC50 (concentration of the compound at which the cell count is reduced by 50%). In outline:
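NHEK-F keratinocytes, 2×10^3 per well in Humedia-EG2, plated overnight, then exposed to compound for three days. Cell count by ATPlite or CellTiterGlo luminescence; inhibition = 100 − (treated/untreated count)×100, IC50 as 50% reduction concentration.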
In general terms: In ATP-based viability assays light output follows the ATP content of the culture.

Assay [3] has as its system TPA-induced ear edema and acanthosis in Balb/c mice. Nature of the assay: Mouse TPA-induced ear-swelling model. The format is in vivo. As to conditions: topical, 240 h, 1% w/v solution, 20 μL applied to ear once a day from day 0 to day 9, female Balb/c mice, read-out: Inhibition rate of change in ear thickness on day 10. As to the method:
Seven-week-old female Balb/c mice (Charles River Laboratories Japan) were used. 20 μL of a 20 ng/mL solution of TPA (Wako Pure Chemical Industries, 162-23591) dissolved in 5% DMSO/acetone was applied to the outer side of the mouse ear on day 0, day 2, day 4, day 7 and day 9 to induce ear edema and acanthosis. The test compound was dissolved in a 5% DMSO/acetone solution (concentration: 1% w/v) and 20 μL of the resulting solution was applied to the outer side of the ear once a day from day 0 to day 9. For the control group, a 5% DMSO/acetone solution was similarly applied. The TPA solution and the test compound solution were mixed and applied on the days for TPA application (day 0, day 2, day 4, day 7 and day 9). The ear thickness was chronologically measured on days 0-4 and days 7-10 using a micrometer (Mitutoyo, MDC-25MJT). The change in ear thickness and the inhibition rate were determined by the following formulas. Change in ear thickness=(ear thickness measured on day 10)−(ear thickness measured on day 0 before TPA application) Inhibition rate (%)=100−(change in ear thickness for test compound group/change in ear thickness for control group)×100

Bounds are passed on as bounds.

By inhibition is commonly meant the share of the control response that was lost under treatment.

With `O=C(O)c1cc(Cl)ccc1Nc1ccc2c(ccn2Cc2ccccc2)c1` [Example 2, 2-((1-benzyl-1H-indol-5-yl)amino)-5-chlorobenzoic acid], the inhibition at 1 µM in assay [1] is at least 50%. For the same molecule, in assay [2], the IC50 was at most 10 nM.

Take `O=C(O)c1cc(Cl)ccc1Nc1cnc2c(ccn2Cc2ccccc2)c1` [Example 11, 2-((1-benzyl-1H-pyrrolo(2,3-b)pyridin-5-yl)amino)-5-chlorobenzoic acid]: the inhibition at 1 µM in assay [1] was at least 50%. Moreover, the IC50 in assay [2] fell in the range of 10 to 100 nM.

Turning to `O=C(O)c1cc(Cl)ccc1Nc1ccc2c(ccn2Cc2cccc(N3CCOCC3)c2)c1` [Example 14, 5-chloro-2-((1-(3-morpholinobenzyl)-1H-indol-5-yl)amino)benzoic acid], in assay [1], the inhibition at 1 µM is at least 50%. Further, the IC50 in assay [2] was at most 10 nM.

Turning to `O=C(O)c1cc(Cl)ccc1Nc1ccc2c(ccn2Cc2cccc(O)c2)c1` [Example 17, 5-chloro-2-((1-(3-hydroxybenzyl)-1H-indol-5-yl)amino)benzoic acid], the inhibition at 1 µM in assay [1] was at least 50%. The IC50 in assay [2] was at most 10 nM.

Turning to `O=C(O)c1cc(Cl)ccc1Nc1ccc2c(cnn2Cc2ccccc2)c1` [Example 21, 2-((1-benzyl-1H-indazol-5-yl)amino)-5-chlorobenzoic acid], the inhibition at 1 µM in assay [1] is at least 50%. The IC50 in assay [2] is at most 10 nM.

With `O=C(O)c1cc(C2CC2)ccc1Nc1cnc2c(ccn2Cc2ccccc2)c1` [Example 27, 2-((1-benzyl-1H-pyrrolo(2,3-b)pyridin-5-yl)amino)-5-cyclopropylbenzoic acid], the inhibition at 1 µM in assay [1] was at least 50%. For the same molecule, in assay [2], the IC50 was at most 10 nM.

For `O=C(O)c1cc(C2CC2)ccc1Nc1ccc2c(ccn2-c2ccccc2)c1` [Example 59, 5-cyclopropyl-2-((1-phenyl-1H-indol-5-yl)amino)benzoic acid], in assay [1], the inhibition at 1 µM was at least 50%. The IC50 in assay [2] was at most 10 nM.

For the molecule `O=C(O)c1cc(Cl)ccc1Nc1ccc2c(c1)oc(=O)n2Cc1ccccc1` [Example 61, 2-((3-benzyl-2-oxo-2,3-dihydrobenzo[d]oxazol-6-yl)amino)-5-chlorobenzoic acid], the inhibition at 1 µM in assay [1] is at least 50%. Further, the IC50 in assay [2] was 10 to 100 nM.

With `O=C(O)c1cc(Cl)ccc1Nc1ccc2c(c1)[nH]c(=O)n2Cc1ccccc1` [Example 63, 2-((1-benzyl-2-oxo-2,3-dihydro-1H-benzo[d]imidazol-5-yl)amino)-5-chlorobenzoic acid], the inhibition at 1 µM in assay [1] was at least 50%.

Consider `Cn1c(=O)n(Cc2ccccc2)c2ccc(Nc3ccc(Cl)cc3C(=O)O)cc21` [Example 65, 2-((1-benzyl-3-methyl-2-oxo-2,3-dihydro-1H-benzo[d]imidazol-5-yl)amino)-5-chlorobenzoic acid], for which, in assay [1], the inhibition at 1 µM is at least 50%. In addition, the IC50 in assay [2] was in the range of 100 to 1000 nM.

For the molecule `N#Cc1ccc(-n2ccc3cc(Nc4ccc(C5CC5)cc4C(=O)O)ccc32)cc1` [Example 106-1, 2-((1-(4-Cyanophenyl)-1H-indol-5-yl)amino)-5-cyclopropylbenzoic acid], the inhibition at 1 µM in assay [1] was at least 50%.

As to `NC(=O)c1ccc(-n2ccc3cc(Nc4ccc(C5CC5)cc4C(=O)O)ccc32)cc1` [Example 106-2, 2-((1-(4-Carbamoylphenyl)-1H-indol-5-yl)amino)-5-cyclopropylbenzoic acid], the inhibition at 1 µM in assay [1] is at least 50%.

As for `O=C(O)c1cc(Cl)ccc1Nc1ccc2c(c1)CCN(Cc1ccccc1)C2=O` [Example 265, 2-((2-benzyl-1-oxo-1,2,3,4-tetrahydroisoquinolin-6-yl)amino)-5-chlorobenzoic acid], the inhibition at 1 µM in assay [1] is at least 50%.

For the molecule `O=C(O)c1cc(Cl)ccc1Nc1ccc2c(c1)CCC(=O)N2Cc1ccccc1` [Example 267, 2-((1-benzyl-2-oxo-1,2,3,4-tetrahydroquinolin-6-yl)amino)-5-chlorobenzoic acid], the inhibition at 1 µM in assay [1] is at least 50%.

On to `O=C(O)c1cc(C2CC2)ccc1Nc1ccc2c(c1)CN(Cc1ccccc1)C2=O` [Example 287, 2-((2-benzyl-1-oxoisoindolin-5-yl)amino)-5-cyclopropylbenzoic acid], for which the inhibition at 1 µM in assay [1] is at least 50%.

Turning to `CCn1ccc2cc(Nc3ncc(C4CC4)cc3C(=O)O)cc(CCCOC)c21` [Example 598, 5-cyclopropyl-2-((1-ethyl-7-(3-methoxypropyl)-1H-indol-5-yl)amino)nicotinic acid], in assay [3], the inhibition in vivo at 1 % strength is at least 20%. In addition, in assay [2], the IC50 was 10 to 100 nM.

In the case of `O=C(O)c1cc(C2CC2)cnc1Nc1ccc2c(ccn2CCc2ccccc2)c1` [Example 619, 5-cyclopropyl-2-((1-(2-phenylethyl)-1H-indol-5-yl)amino)nicotinic acid], in assay [3], the inhibition in vivo at 1 % strength is at least 20%. Besides, in assay [2], the IC50 is at most 10 nM.

For the molecule `Cc1cc(Nc2ncc(C3CC3)cc2C(=O)O)cc2ccn(Cc3cccc(F)c3)c12` [Example 621, 5-cyclopropyl-2-((1-(3-fluorobenzyl)-7-methyl-1H-indol-5-yl)amino)nicotinic acid], in assay [3], the inhibition in vivo at 1 % strength was at least 20%. In addition, the IC50 in assay [2] was at most 10 nM.

`CCC(CC)Cn1ccc2cc(Nc3ncc(C4CC4)cc3C(=O)O)ccc21` [Example 632, 5-cyclopropyl-2-((1-(2-ethylbutyl)-1H-indol-5-yl)amino)nicotinic acid]: the inhibition in vivo at 1 % strength in assay [3] was at least 20%. In addition, the IC50 in assay [2] was at most 10 nM.

`O=C(O)c1cc(C2CC2)cnc1Nc1ccc2c(ccn2Cc2ccc(F)cc2F)c1` [Example 633, 5-cyclopropyl-2-((1-(2,4-difluorobenzyl)-1H-indol-5-yl)amino)nicotinic acid]: the inhibition in vivo at 1 % strength in assay [3] is at least 20%. Further, the IC50 in assay [2] is at most 10 nM.

For the molecule `O=C(O)c1cc(C2CC2)cnc1Nc1ccc2c(ccn2Cc2ccc(F)c(F)c2)c1` [Example 635, 5-cyclopropyl-2-((1-(3,4-difluorobenzyl)-1H-indol-5-yl)amino)nicotinic acid], the inhibition in vivo at 1 % strength in assay [3] is at least 20%. Besides, the IC50 in assay [2] was at most 10 nM.

With `CCCCn1ccc2cc(Nc3ncc(C4CC4)cc3C(=O)O)ccc21` [Example 637, 2-((1-butyl-1H-indol-5-yl)amino)-5-cyclopropylnicotinic acid], in assay [3], the inhibition in vivo at 1 % strength was at least 20%. Besides, the IC50 in assay [2] lay within 10 to 100 nM.

`CCCCCn1ccc2cc(Nc3ncc(C4CC4)cc3C(=O)O)ccc21` [Example 638, 5-cyclopropyl-2-((1-pentyl-1H-indol-5-yl)amino)nicotinic acid]: the inhibition in vivo at 1 % strength in assay [3] was at least 20%. For the same molecule, in assay [2], the IC50 is 10 to 100 nM.

As for `CCCCCCn1ccc2cc(Nc3ncc(C4CC4)cc3C(=O)O)ccc21` [Example 639, 5-cyclopropyl-2-((1-hexyl-1H-indol-5-yl)amino)nicotinic acid], the inhibition in vivo at 1 % strength in assay [3] is at least 20%. The IC50 in assay [2] was at most 10 nM.

For `O=C(O)c1cc(C2CC2)cnc1Nc1ccc2c(ccn2Cc2cc(F)ccc2F)c1` [Example 641, 5-cyclopropyl-2-((1-(2,5-difluorobenzyl)-1H-indol-5-yl)amino)nicotinic acid], in assay [3], the inhibition in vivo at 1 % strength is at least 20%. The IC50 in assay [2] is at most 10 nM.

Consider `O=C(O)c1cc(C2CC2)cnc1Nc1ccc2c(ccn2Cc2cccc(F)c2F)c1` [Example 642, 5-cyclopropyl-2-((1-(2,3-difluorobenzyl)-1H-indol-5-yl)amino)nicotinic acid], for which the inhibition in vivo at 1 % strength in assay [3] was at least 20%. Also, the IC50 in assay [2] was at most 10 nM.

These data come from patent publication US9624215B2, “Amine derivative or salt thereof” (TOYAMA CHEMICAL CO., LTD., priority 2012, dated 2017).
